Data from patent US8481005B2, “Methods to prevent cytotoxicity using N-acetyl-cysteine” (priority 2006, dated 2013).

Experiments:
Type in all cases: cell-based
[1] = tested on: PBMCs; test: PBMCs treated with HEMA or CDDP, FITC-Annexin V and PI; settings: about 18 hours, highest concentration of CDDP, HEMA 0.0164M-0.00164M
From the text: The cells were then stained with FITC-Annexin V and PI according to the manufacturer's protocol.

[2] = tested on: active caspase 3; test: Active caspase 3 staining in PBMCs treated with HEMA or CDDP; settings: HEMA 0.0164M, CDDP
[3] = tested on: dental pulp stromal cells; test: Cell death of rat dental pulp stromal cells with ascorbic acid; settings: overnight incubation; FITC Annexin V and PI
Experimental: Rat dental pulp stromal cells were next treated with HEMA in the presence and absence of another antioxidant, ascorbic acid. After an overnight incubation following procedures similar to those described above, levels of cell death were determined using FITC Annexin V and PI. […] Role of Cell Differentiation Studies

[4] = tested on: human dental pulp stromal cells; test: VEGF by ELISA, human dental pulp stromal cells, NAC versus vitamin E (Table 5); settings: 4 hours
Experimental: (§1) Following the 4 hour incubation, cells were analyzed for apoptosis using FTIC-Annexin V and PI.
Dental pulp stromal cells were then treated as described in the preceding paragraph with supernatants removed and assayed for VEGF levels by ELISA following the 4 hour incubation.

[5] = tested on: human dental pulp stromal cells; test: Apoptosis of human dental pulp stromal cells, NAC versus vitamin E, 4 hours; settings: HEMA (0.0082M), vitamin E (5 mM)
Experimental: as §1

[6] = tested on: Caspase 3; test: Full length caspase 3 in keratinocytes; settings: about 8 hours, NAC 20 mM
From the text: Roles of NFkB and GAPDH in HEMA-Mediated Cell Death

In the case of `N.N.[Cl][Pt][Cl]` [CDDP, Cis-diaminedichloroplatinum (II)], the “cells remained both PI and Annexin V negative” value [1] was 80% and the “active caspase 3 staining” value [2] was 22%.
For `O=C1O[C@H]([C@@H](O)CO)C(O)=C1O` [ascorbic acid], the “reversal of apoptosis induced by HEMA” value [3] was “did not reverse apoptosis induced by HEMA”.
For Vitamin E [Vit E], the “VEGF levels by ELISA, Human dental pulp stromal cells” value ([4]; no HEMA, NAC (20 mM) and/or vitamin E (5 mM)) was 1966.2, the “prevention of HEMA mediated decrease in VEGF secretion” value ([4]; vitamin E (5 mM)) was “failed to prevent the HEMA mediated decrease in VEGF secretion” and the “inhibition of HEMA mediated cell death” value [5] was “failed to inhibit HEMA mediated cell death”.
`CC[C@@]1(O)C(=O)OCc2c1cc1n(c2=O)Cc2cc3ccccc3nc2-1` [camptothecin] was tested, and the “levels of full length caspase 3 (processing of caspase 3)” value [6] was “moderate effect in processing of caspase 3”.
